pIC50: −log10 of the molar value. Values joined by “and” are separate entries in the source; they are usually repeats but may differ in a detail not shown here. Equal values may be shown once. Read-outs that look alike come from different tables or passages of the source.
Assays:
[1] = tested on: human normal liver cell line L-02; test: Cytotoxicity test on human normal liver cell line L-02 (Alamar Blue); format: cell-based; details: L02, L-02 cells, 120 h incubation, cell viability, read-out: half inhibitory concentration (IC50) against L-02
Procedure: (§1) 2.1 The normal liver cell lines L-02 and WRL-68 were cultured with DMEM culture medium (containing 10% of fetal bovine serum, 100 U/mL of penicillin and 0.1 mg/mL of streptomycin) in an incubator under 5% CO2 at 37° C. until the cell density was about 90%, respectively.
(§2) 2.3 Tested compounds and benzbromarone at different concentration gradients were prepared by using the DMEM culture medium and added into wells at 100 μL/well as compounds wells. The DMEM culture medium was added into wells at 100 μL/well without tested compound as negative control wells.
(§3) This 10× Alamar Blue solution was diluted into 1× Alamar Blue solution with phenol red free DMEM culture medium before use.
(§4) 2.5 The cells were washed with PBS (0.1 M, pH=7.4) twice. The Alamar Blue solution was added into wells at 100 μL/well. 100 μL of Alamar Blue solution was added into wells without cells to serve as blank control wells. The 96-well plate was placed in an incubator under 5% CO2 at 37° C. for 3 h. Each concentration of compound was repeated three times during the test.
(§5) The fluorescence value of the cells containing compound is the F(test compound); the fluorescence value of the cells without compound as blank control is the F(blank control); the fluorescent value of the cells from negative control group is F(negative control). The average value and standard deviation of cell viability of three repeated concentrations was calculated by the following formula: […]
(§6) 2.7 The half inhibitory concentration (IC50) of the compound for the cells L-02 and WRL-68 was obtained from the cell viability by Prism Graph software.

[2] = tested on: human normal liver cell line WRL-68; test: Cytotoxicity test on human normal liver cell line WRL-68 (Alamar Blue); format: cell-based; details: WRL68, WRL-68 cells, 120 h incubation, cell viability, read-out: half inhibitory concentration (IC50) against WRL-68
Procedure: as §1, §2, §3, §4, §5, §6

[3] = Pharmacokinetics following intravenous and oral administration in SD rats; format: in vivo
From the text: Dose formulation preparation for PO: Weight out the required amount of compound 74. Added approximately 70% of 0.5% CMC-Na with stirring, vortexing and sonication to mix well until visually well suspension. Then added the remaining vehicle to target total volume and vortex-mix.
Dose formulation preparation for IV: Weight out the required amount of compound 74. Added appropriate DMSO with sonication until dissolved, then added appropriate HP-β-Cyclodextrin water solution (20%, w/v) with vortexing to mix well.
Species: SD rats (SPF Level); sex: male; source: Sino-British SIPPR/BK Lab Animal Ltd., Shanghai.
The animals that dosed via orally were fasted overnight (10-14 hours) prior to oral administration. Food supply to the animals dosed orally were resumed 4 h post-dose.
Blood samples (approximately 250 μL/sample) were collected via jugular vein at Pre-dose and Post-dose (5 min, 15 min, 30 min, 1 h, 2 h, 4 h, 6 h, 8 h, and 24 h). Blood samples were placed into tubes containing sodium heparin and centrifuged conditions at 8000 rpm for 6 minutes at 2-8° C. to separate plasma from the samples. Plasma sample (50 μL) were transferred to tube, then 250 μL IS solution (200 ng/mL Tolbutamide) was added to it. After vortexing for 1 min and centrifuging for 5 min at 15000 rpm, 200 μL aliquots of supernatant were transferred to 96-well plate for LC-MS/MS analysis. The calibration curve of compound 74 was ranging from 1 to 1000 ng/mL. The LLOQ is 1 ng/mL for plasma.
A non-compartemental module of WinNonlin® Professional 5.2 was used to calculate parameters. The bioavailability was calculated as F %=(Dose(IV)×AUC(0-t)(PO))/(Dose(PO)×AUC(0-t)(IV))×100%.

[4] = in vivo; details: both, SD, rat, po
From the text: Rats were randomly divided into group A1, group B1 and blank control group. Each group has 10 of rats with half male and half female.

[5] = IV 1 mg/kg, individual rats 201-203, 1 mg/kg
[6] = PO 10 mg/kg, individual rats 101-103, 10 mg/kg

Structure (SMILES): CCc1nc2ccccn2c1C(=O)c1cc(Br)c(O)c(C#N)c1 [Compound 74, 3-bromo-5-(2-ethylimidazo[1,2-a]pyridine-3-carbonyl)-2-hydroxybenzonitrile hydrogen chloride]
- pIC50 [1]: < 4.00
- pIC50 [2]: < 4.00
- Clz ([3]; IV 1 mg/kg, Mean of 3 rats): 1.803 mL/min/kg
- AUC(0-t) [3, 5]: 9076.84 ng·h/mL and 8847.27 ng·h/mL
- Clz [3, 5]: 1.8372 mL/min/kg and 1.761 mL/min/kg and 1.8108 mL/min/kg
- Cmax [3, 5]: 6705.53 ng/mL and 6885.21 ng/mL
- MRT(0-∞) [3, 5]: 5.60 h
- Vz [3, 5]: 0.91779 L/kg and 0.93449 L/kg
- t1/2 [3, 5]: 6.00 h
- F (%) ([3]; PO 10 mg/kg vs IV 1 mg/kg, from AUC(0-t), individual rats 101-103): 108.04% and 100.28%
- AUC(0-t) [3, 6]: 96188.83 ng·h/mL and 89284.20 ng·h/mL
- Cmax [3, 6]: 6976.14 ng/mL and 8251.74 ng/mL
- MRT(0-∞) [3, 6]: 6.80 h and 6.00 h
- Tmax [3, 6]: 2.00 h and 6.00 h
- t1/2 [3, 6]: 3.00 h and 2.70 h
- half-life ([3]; male, SD, rat, plasma, iv, 1 mg/kg, IV 1 mg/kg, Mean of 3 rats): 5.8 h
- AUC(0-t) ([3]; male, SD, rat, plasma, iv, 1 mg/kg, IV 1 mg/kg, Mean of 3 rats, read-out: AUC(0-t)): 8900 ng·h/mL
- Cmax ([3]; male, SD, rat, plasma, iv, 1 mg/kg, IV 1 mg/kg, Mean of 3 rats, read-out: Cmax): 6360 ng/mL
- MRT inf ([3]; male, SD, rat, plasma, iv, 1 mg/kg, IV 1 mg/kg, Mean of 3 rats, read-out: MRT(0-∞)): 5.5 h
- Tmax ([3]; male, SD, rat, plasma, iv, 1 mg/kg, IV 1 mg/kg, Mean of 3 rats, read-out: Tmax): 0.1 h
- Vd ([3]; male, SD, rat, plasma, iv, 1 mg/kg, IV 1 mg/kg, Mean of 3 rats, read-out: Vz): 0.904 L/kg
- half-life ([3]; male, SD, rat, plasma, iv, 1 mg/kg, IV 1 mg/kg, individual rats 201-203): 5.4 h
- AUC(0-t) ([3]; male, SD, rat, plasma, iv, 1 mg/kg, IV 1 mg/kg, individual rats 201-203, read-out: AUC(0-t)): 8790 ng·h/mL
- Cmax ([3]; male, SD, rat, plasma, iv, 1 mg/kg, IV 1 mg/kg, individual rats 201-203, read-out: Cmax): 5490 ng/mL
- MRT inf ([3]; male, SD, rat, plasma, iv, 1 mg/kg, IV 1 mg/kg, individual rats 201-203, read-out: MRT(0-∞)): 5.4 h
- Tmax ([3]; male, SD, rat, plasma, iv, 1 mg/kg, IV 1 mg/kg, individual rats 201-203, read-out: Tmax): 0.1 h
- Vd ([3]; male, SD, rat, plasma, iv, 1 mg/kg, IV 1 mg/kg, individual rats 201-203, read-out: Vz): 0.859 L/kg
- bioavailability ([3]; male, SD, rat, plasma, po, 10 mg/kg, PO 10 mg/kg vs IV 1 mg/kg, from AUC(0-t), Mean of 3 rats): 103%
- bioavailability ([3]; male, SD, rat, plasma, po, 10 mg/kg, PO 10 mg/kg vs IV 1 mg/kg, from AUC(0-t), individual rats 101-103): 101%
- half-life ([3]; male, SD, rat, plasma, po, 10 mg/kg, PO 10 mg/kg, Mean of 3 rats): 2.9 h
- AUC(0-t) ([3]; male, SD, rat, plasma, po, 10 mg/kg, PO 10 mg/kg, Mean of 3 rats, read-out: AUC(0-t)): 91800 ng·h/mL
- Cmax ([3]; male, SD, rat, plasma, po, 10 mg/kg, PO 10 mg/kg, Mean of 3 rats, read-out: Cmax): 8140 ng/mL
- MRT inf ([3]; male, SD, rat, plasma, po, 10 mg/kg, PO 10 mg/kg, Mean of 3 rats, read-out: MRT(0-∞)): 6.3 h
- Tmax ([3]; male, SD, rat, plasma, po, 10 mg/kg, PO 10 mg/kg, Mean of 3 rats, read-out: Tmax): 3.3 h
- half-life ([3]; male, SD, rat, plasma, po, 10 mg/kg, PO 10 mg/kg, individual rats 101-103): 2.9 h
- AUC(0-t) ([3]; male, SD, rat, plasma, po, 10 mg/kg, PO 10 mg/kg, individual rats 101-103, read-out: AUC(0-t)): 89900 ng·h/mL
- Cmax ([3]; male, SD, rat, plasma, po, 10 mg/kg, PO 10 mg/kg, individual rats 101-103, read-out: Cmax): 9210 ng/mL
- MRT inf ([3]; male, SD, rat, plasma, po, 10 mg/kg, PO 10 mg/kg, individual rats 101-103, read-out: MRT(0-∞)): 5.9 h
- MTD at 14 days [4]: 5000 mg/kg

Reference: patent US10399971B2, “Compound for treating or preventing hyperuricemia or gout” (JIANGSU ATOM BIOSCIENCE AND PHARMACEUTICAL CO., LTD., priority 2015, dated 2019)
